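Interpolation was linear, between the two tested concentrations surrounding the appropriate level; five concentrations were tested over 48 hours in 96-well plates. At the GI50, growth is halved. TGI: total growth inhibition.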
Legend:
Assay in all cases: growth of human tumour cells (NCI), 48 h
786-0 renal = tested on: 786-0 renal
HL-60(TB) leukemia = tested on: HL-60(TB) leukemia
MOLT-4 leukemia = tested on: MOLT-4 leukemia
HOP-92 NSCLC = tested on: HOP-92 NSCLC
NCI-H23 lung = tested on: NCI-H23 lung
OVCAR-5 ovarian = tested on: OVCAR-5 ovarian
CAKI-1 renal = tested on: CAKI-1 renal
SF-268 CNS = tested on: SF-268 CNS
HT29 colon = tested on: HT29 colon
COLO 205 colon = tested on: COLO 205 colon
OVCAR-4 ovarian = tested on: OVCAR-4 ovarian
HCT-116 colon = tested on: HCT-116 colon
CCRF-CEM leukemia = tested on: CCRF-CEM leukemia
SF-539 CNS = tested on: SF-539 CNS
KM12 colon = tested on: KM12 colon
IGROV1 ovarian = tested on: IGROV1 ovarian
A498 renal = tested on: A498 renal
A549 NSCLC = tested on: A549 NSCLC
SK-MEL-28 melanoma = tested on: SK-MEL-28 melanoma
RXF 393 renal = tested on: RXF 393 renal
RPMI-8226 leukemia = tested on: RPMI-8226 leukemia
SNB-75 CNS = tested on: SNB-75 CNS
SK-MEL-5 melanoma = tested on: SK-MEL-5 melanoma
U251 CNS = tested on: U251 CNS
SK-MEL-2 melanoma = tested on: SK-MEL-2 melanoma
UACC-257 melanoma = tested on: UACC-257 melanoma
NCI/ADR-RES ovarian = tested on: NCI/ADR-RES ovarian
UO-31 renal = tested on: UO-31 renal
HOP-62 NSCLC = tested on: HOP-62 NSCLC
SF-295 CNS = tested on: SF-295 CNS
MCF7 breast = tested on: MCF7 breast
UACC-62 melanoma = tested on: UACC-62 melanoma
SK-OV-3 ovarian = tested on: SK-OV-3 ovarian
NCI-H522 lung = tested on: NCI-H522 lung
SW-620 colon = tested on: SW-620 colon
OVCAR-8 ovarian = tested on: OVCAR-8 ovarian
SNB-19 CNS = tested on: SNB-19 CNS
SR leukemia = tested on: SR leukemia
MDA-MB-231 breast = tested on: MDA-MB-231 breast
K-562 leukemia = tested on: K-562 leukemia
MDA-MB-435 = tested on: MDA-MB-435
NCI-H226 lung = tested on: NCI-H226 lung
HS 578T breast = tested on: HS 578T breast
T-47D breast = tested on: T-47D breast
ACHN renal = tested on: ACHN renal
EKVX NSCLC = tested on: EKVX NSCLC
MALME-3M melanoma = tested on: MALME-3M melanoma
HCC-2998 colon = tested on: HCC-2998 colon
NCI-H460 lung = tested on: NCI-H460 lung
M14 melanoma = tested on: M14 melanoma
TK-10 renal = tested on: TK-10 renal
SN12C renal = tested on: SN12C renal
PC-3 prostate = tested on: PC-3 prostate
LOX IMVI melanoma = tested on: LOX IMVI melanoma
DU-145 prostate = tested on: DU-145 prostate
BT-549 breast = tested on: BT-549 breast

## FC(F)(F)c1cc(Br)cc(-c2cc(-c3ccc4c(c3)OCCO4)[nH]n2)c1
786-0 renal
  GI50: 56.5 nM
  TGI: 3780 nM
HL-60(TB) leukemia
  GI50: 33.6 nM
MOLT-4 leukemia
  GI50: 196 nM
  TGI: > 100000 nM
HOP-92 NSCLC
  GI50: 1150 nM
  TGI: 5510 nM
NCI-H23 lung
  GI50: 376 nM
  TGI: > 100000 nM
OVCAR-5 ovarian
  GI50: 348 nM
  TGI: > 100000 nM
CAKI-1 renal
  GI50: 79.3 nM
  TGI: > 100000 nM
SF-268 CNS
  GI50: 753 nM
  TGI: > 100000 nM
HT29 colon
  GI50: 42.6 nM
  TGI: 533 nM
COLO 205 colon
  GI50: 109 nM
  TGI: 283 nM
OVCAR-4 ovarian
  TGI: > 100000 nM
HCT-116 colon
  GI50: 42.4 nM
  TGI: 1620 nM
CCRF-CEM leukemia
  GI50: 87.5 nM
  TGI: > 39500 nM
SF-539 CNS
  GI50: 65.1 nM
  TGI: 757 nM
KM12 colon
  GI50: 59.6 nM
  TGI: > 52100 nM
IGROV1 ovarian
  GI50: 153 nM
  TGI: > 100000 nM
A498 renal
  GI50: 36.3 nM
  TGI: 283 nM
A549 NSCLC
  GI50: 146 nM
  TGI: > 38100 nM
SK-MEL-28 melanoma
  GI50: 2680 nM
  TGI: > 100000 nM
RXF 393 renal
  GI50: 47.8 nM
  TGI: 450 nM
RPMI-8226 leukemia
  GI50: 306 nM
  TGI: > 22900 nM
SNB-75 CNS
  GI50: 120 nM
  TGI: 925 nM
SK-MEL-5 melanoma
  GI50: 84.1 nM
  TGI: 2540 nM
U251 CNS
  GI50: 78.5 nM
  TGI: 4860 nM
SK-MEL-2 melanoma
  GI50: 162 nM
  TGI: > 100000 nM
UACC-257 melanoma
  GI50: 2710 nM
  TGI: > 100000 nM
NCI/ADR-RES ovarian
  GI50: 51.7 nM
  TGI: > 100000 nM
UO-31 renal
  GI50: 201 nM
  TGI: > 100000 nM
HOP-62 NSCLC
  GI50: 226 nM
  TGI: > 100000 nM
SF-295 CNS
  GI50: 31.8 nM
MCF7 breast
  GI50: 59 nM
  TGI: > 100000 nM
UACC-62 melanoma
  GI50: 39 nM
  TGI: > 100000 nM
SK-OV-3 ovarian
  GI50: 124 nM
  TGI: > 56600 nM
NCI-H522 lung
  GI50: 23.6 nM
  TGI: 69.4 nM
SW-620 colon
  GI50: 54 nM
  TGI: > 100000 nM
OVCAR-8 ovarian
  GI50: 213 nM
  TGI: 1470 nM
SNB-19 CNS
  GI50: 108 nM
  TGI: > 100000 nM
SR leukemia
  GI50: 36.4 nM
  TGI: > 100000 nM
MDA-MB-231 breast
  GI50: 78.5 nM
  TGI: > 100000 nM
K-562 leukemia
  GI50: 37.3 nM
  TGI: > 100000 nM
MDA-MB-435
  GI50: 26.4 nM
  TGI: 773 nM
NCI-H226 lung
  GI50: 214 nM
  TGI: > 100000 nM
HS 578T breast
  GI50: 259 nM
  TGI: > 100000 nM
T-47D breast
  GI50: 683 nM
  TGI: > 100000 nM
ACHN renal
  GI50: 75.2 nM
  TGI: > 100000 nM
EKVX NSCLC
  GI50: 645 nM
  TGI: > 100000 nM
MALME-3M melanoma
  GI50: 1600 nM
  TGI: > 100000 nM
HCC-2998 colon
  GI50: 290 nM
  TGI: > 100000 nM
NCI-H460 lung
  GI50: 60.5 nM
  TGI: 13900 nM
M14 melanoma
  GI50: 76.5 nM
  TGI: > 38600 nM
TK-10 renal
  GI50: 12300 nM
  TGI: 63400 nM
SN12C renal
  GI50: 144 nM
  TGI: 4400 nM
PC-3 prostate
  GI50: 70.5 nM
  TGI: > 38500 nM
LOX IMVI melanoma
  GI50: 29.6 nM
  TGI: > 100000 nM
DU-145 prostate
  GI50: 284 nM
  TGI: > 100000 nM
BT-549 breast
  GI50: 56.7 nM
  TGI: 2220 nM

Reference: PubChem BioAssay (NCI)
